Assay results published in PMC6858373 (Scientific Reports, 2019).
Where a name gives a salt, the structure may show the parent alone. Read-outs that look alike come from different tables or passages of the source.

Legend:
[1] = target: T1, FGF14:Nav1.6 C-tail complex (Homo sapiens, UniProt Q92915+Q9UQD0); assay: Split-luciferase complementation assay (LCA) in Clone V double stable HEK293 cells; format: cell-based; settings: for Split Luciferase Assay Z-score Set 1 / Split Luciferase Assay % Lum Set 1 / Split Luciferase Assay Z-score Set 2 / Split Luciferase Assay %Lum Set 2: CC_NCI screening; for Split Luciferase Assay Z-score Set 1 / Split Luciferase Assay % Lum Set 1: biological replicate Set 1; for Split Luciferase Assay Z-score Set 1 / Split Luciferase Assay Z-score Set 2: normalized to on-plate 0.3% DMSO controls; for Split Luciferase Assay % Lum Set 1 / Split Luciferase Assay %Lum Set 2: normalized to on-plate 0.3% DMSO controls (n=16 per plate); for Split Luciferase Assay Z-score Set 2 / Split Luciferase Assay %Lum Set 2: biological replicate Set 2; for Split Luciferase Assay %Lum Avg: average of Set 1 and Set 2, normalized to 0.3% DMSO controls
T1 construct: polymerase chain reaction (PCR) amplification of the FGF14 open reading frame (nt 1–855); C-terminal fragment of Nav1.6 (amino acids 1763–1976) fused with CD4ΔC-tail (amino acids 1–395); expressed in transfected cells
T1 sequence (Q92915 1-252 isoform Q92915-2): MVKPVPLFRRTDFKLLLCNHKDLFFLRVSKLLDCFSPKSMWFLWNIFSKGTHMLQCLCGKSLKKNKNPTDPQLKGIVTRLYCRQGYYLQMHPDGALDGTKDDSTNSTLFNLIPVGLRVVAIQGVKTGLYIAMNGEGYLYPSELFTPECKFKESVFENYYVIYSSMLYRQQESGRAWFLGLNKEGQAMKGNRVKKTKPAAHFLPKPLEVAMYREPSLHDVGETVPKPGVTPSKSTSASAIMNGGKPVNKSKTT
T1 sequence (Q9UQD0 1763-1976 limits assumed): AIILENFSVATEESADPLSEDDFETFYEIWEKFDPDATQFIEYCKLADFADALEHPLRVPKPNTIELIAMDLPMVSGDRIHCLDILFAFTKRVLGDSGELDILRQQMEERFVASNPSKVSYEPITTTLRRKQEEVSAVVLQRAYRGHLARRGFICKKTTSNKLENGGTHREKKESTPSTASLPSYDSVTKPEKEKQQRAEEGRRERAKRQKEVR

[2] = target: full-length P. pyralis luciferase (Photinus pyralis, UniProt P08659, K549A/L550V/N119G/N50D/S548I); format: cell-based
Chain of full-length P. pyralis luciferase (P08659 whole entry N50D/N119G/S548I/K549A/L550V, looked up): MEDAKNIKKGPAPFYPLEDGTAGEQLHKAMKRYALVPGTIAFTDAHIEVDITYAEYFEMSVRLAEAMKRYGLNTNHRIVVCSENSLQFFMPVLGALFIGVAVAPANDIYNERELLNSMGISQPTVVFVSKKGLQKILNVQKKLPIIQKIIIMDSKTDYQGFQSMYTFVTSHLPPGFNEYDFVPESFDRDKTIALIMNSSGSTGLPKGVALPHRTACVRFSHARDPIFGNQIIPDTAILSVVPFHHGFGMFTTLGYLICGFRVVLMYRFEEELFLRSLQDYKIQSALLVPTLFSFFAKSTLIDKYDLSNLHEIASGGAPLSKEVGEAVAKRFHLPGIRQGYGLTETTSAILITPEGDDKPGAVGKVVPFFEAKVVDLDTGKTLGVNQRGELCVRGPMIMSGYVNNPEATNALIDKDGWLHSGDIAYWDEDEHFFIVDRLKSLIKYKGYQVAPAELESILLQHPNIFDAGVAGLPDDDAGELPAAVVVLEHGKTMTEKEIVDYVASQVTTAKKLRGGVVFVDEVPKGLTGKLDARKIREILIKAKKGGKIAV

in vitro = settings: human
Clone V cells = settings: human
[3] = CC_NCI screening, normalized to on-plate 0.3% DMSO controls

## NC(=O)Nc1cc(-c2cccc(F)c2)sc1C(=O)N[C@H]1CCCNC1 [AZD 7762]
[1]
  Split Luciferase Assay Z-score Set 1: -1.38
  Split Luciferase Assay % Lum Set 1: 82.95%
  Split Luciferase Assay Z-score Set 2: -2.63
  Split Luciferase Assay %Lum Set 2: 67.62%
  Split Luciferase Assay %Lum Avg: 75.28%
[2]; [3]
  Luciferase Assay % Lum (full-length luciferase counter-screen): 92.74%
  Luciferase Assay Z-score (full-length luciferase counter-screen): -0.93
In vitro
  viability: 102%
Clone V cells
  Toxicity Assay Z-score (CTB cell viability): 0.35

## CN(C)c1nc(N(C)C)nc(N(C)C)n1 [Altretamine]
[1]
  Split Luciferase Assay Z-score Set 1: -0.59
  Split Luciferase Assay % Lum Set 1: 92.73%
  Split Luciferase Assay Z-score Set 2: 1.85
  Split Luciferase Assay %Lum Set 2: 122.76%
  Split Luciferase Assay %Lum Avg: 107.74%
[2]
  Luciferase Assay % Lum (full-length luciferase counter-screen): 97.84%
  Luciferase Assay Z-score (full-length luciferase counter-screen): -0.28
In vitro
  viability at 16 h, 30 µM: 103%
Clone V cells; 16 h, 30 µM
  Toxicity Assay Z-score (CTB cell viability): 0.43

## NCC(=O)CCC(=O)O [Aminolevulinic acid hydrochloride]
[1]
  Split Luciferase Assay Z-score Set 1: -0.06
  Split Luciferase Assay % Lum Set 1: 99.25%
  Split Luciferase Assay Z-score Set 2: 0.75
  Split Luciferase Assay %Lum Set 2: 109.23%
  Split Luciferase Assay %Lum Avg: 104.24%
[2]; [3]
  Luciferase Assay % Lum (full-length luciferase counter-screen): 100.02%
  Luciferase Assay Z-score (full-length luciferase counter-screen): 0.00
In vitro; Clone V cells
  viability at 16 h, 30 µM: 102%
Clone V cells; 16 h, 30 µM
  Toxicity Assay Z-score (CTB cell viability): 0.31

## Nc1ncn([C@@H]2O[C@H](CO)[C@@H](O)[C@H]2O)c(=O)n1 [Azacitidine]
[1]
  Split Luciferase Assay Z-score Set 1: -0.32
  Split Luciferase Assay % Lum Set 1: 95.99%
  Split Luciferase Assay Z-score Set 2: 0.24
  Split Luciferase Assay %Lum Set 2: 102.99%
  Split Luciferase Assay %Lum Avg: 99.49%
[2]; [3]
  Luciferase Assay % Lum (full-length luciferase counter-screen): 93.68%
  Luciferase Assay Z-score (full-length luciferase counter-screen): -0.81
In vitro
  viability at 16 h, 30 µM: 103%
Clone V cells; 16 h, 30 µM
  Toxicity Assay Z-score (CTB cell viability): 0.41

## O=C(NCCCNc1nc(Nc2cccc(NC(=O)N3CCCC3)c2)ncc1I)c1cccs1 [BX 795]
[1]
  Split Luciferase Assay Z-score Set 1: -4.28
  Split Luciferase Assay % Lum Set 1: 47.07%
  Split Luciferase Assay Z-score Set 2: -5.85
  Split Luciferase Assay %Lum Set 2: 28.09%
  Split Luciferase Assay %Lum Avg: 37.58%
[2]; [3]
  Luciferase Assay % Lum (full-length luciferase counter-screen): 70.68%
  Luciferase Assay Z-score (full-length luciferase counter-screen): -3.76
In vitro
  viability at 16 h, 30 µM: 103%
Clone V cells; 16 h, 30 µM
  Toxicity Assay Z-score (CTB cell viability): 0.47

## CS(=O)(=O)OCCCCOS(C)(=O)=O [Busulfan]
[1]
  Split Luciferase Assay Z-score Set 1: -0.50
  Split Luciferase Assay % Lum Set 1: 93.82%
  Split Luciferase Assay Z-score Set 2: 1.01
  Split Luciferase Assay %Lum Set 2: 112.35%
  Split Luciferase Assay %Lum Avg: 103.09%
[2]; [3]
  Luciferase Assay % Lum (full-length luciferase counter-screen): 97.98%
  Luciferase Assay Z-score (full-length luciferase counter-screen): -0.26
In vitro; Clone V cells
  viability at 16 h, 30 µM: 107%
Clone V cells; 16 h, 30 µM
  Toxicity Assay Z-score (CTB cell viability): 0.92

## Cc1c[nH]c(-c2cnc(NCCNc3ccc(C#N)cn3)nc2-c2ccc(Cl)cc2Cl)n1 [CHIR 99021]
[1]
  Split Luciferase Assay Z-score Set 1: -4.98
  Split Luciferase Assay % Lum Set 1: 38.37%
  Split Luciferase Assay Z-score Set 2: -5.60
  Split Luciferase Assay %Lum Set 2: 31.21%
  Split Luciferase Assay %Lum Avg: 34.79%
[2]; [3]
  Luciferase Assay % Lum (full-length luciferase counter-screen): 70.15%
  Luciferase Assay Z-score (full-length luciferase counter-screen): -3.82
In vitro
  viability at 16 h, 30 µM: 108%
Clone V cells; 16 h, 30 µM
  Toxicity Assay Z-score (CTB cell viability): 1.07

## CCCCCOC(=O)Nc1nc(=O)n([C@@H]2O[C@H](C)[C@@H](O)[C@H]2O)cc1F [Capecitabine]
[1]
  Split Luciferase Assay Z-score Set 1: 1.96
  Split Luciferase Assay % Lum Set 1: 124.26%
  Split Luciferase Assay Z-score Set 2: 1.17
  Split Luciferase Assay %Lum Set 2: 114.43%
  Split Luciferase Assay %Lum Avg: 119.35%
[2]; [3]
  Luciferase Assay % Lum (full-length luciferase counter-screen): 100.06%
  Luciferase Assay Z-score (full-length luciferase counter-screen): 0.01
In vitro; Clone V cells
  viability at 16 h, 30 µM: 107%
Clone V cells; 16 h, 30 µM
  Toxicity Assay Z-score (CTB cell viability): 1.00

## COc1c2occc2cc2ccc(=O)oc12 [Methoxsalen]
[2]; [3]
  Luciferase Assay % Lum (full-length luciferase counter-screen): 93.90%
  Luciferase Assay Z-score (full-length luciferase counter-screen): -0.78
In vitro
  viability at 16 h, 30 µM: 109%
Clone V cells; 16 h, 30 µM
  Toxicity Assay Z-score (CTB cell viability): 1.23
